Laboratory results as given in patent US4084006A, “Method of using dialkylphenols an antiviral agents” (priority 1977, dated 1978).

Key:
[1] = system: Measles; test: Inhibition of cytopathic activity (CPE) of measles virus in HEL tissue culture; assay type: cell-based; conditions: for CPE with 100 TCID50 doses of Measles virus: HEL cells
Description: (§1) The anti-viral activity of 2,4-dimethylphenol was studied in the following manner. Tissue cultures derived from human embryonic lung (HEL) were grown and maintained as monolayers in 32 ounce prescription bottles using growth medium consisting of 85% synthetic mixture No. 199 plus 15% unfiltered fetal bovine serum (FBS) adjusted to pH 7.4. Tube cultures of HEL cells were prepared in similar fashion and used in assays for anti-viral activity. During chemotherapy tests, the maintenance medium consisted of synthetic mixture No. 199 with 7.5% FBS. The virus spectrum in tissue culture consisted of two DNA viruses, a San Carlos virus isolated by Davis [see Science 133, 2059, 1961] and later identified as an adenovirus, and the HF strain of herpes simplex virus. In addition, a RNA virus represented by measles was included in the examples.
(§2) In performing the initial assays, the tissue cultures were treated prophylactically and the virus was treated in vitro with decreasing 2,4-dimethylphenol concentrations ranging from […] (2 × 10^-6) to 2 attograms (ag) (2 × 10^-18) per ml. The procedure consisted of pretreating tube cultures of HEL cells for two to three days with growth medium containing varying concentrations of 2,4-dimethylphenol. After the prophylactic treatment, the test fluids were removed and replaced with fresh maintenance medium. At this time, 200 TCID50 doses of virus were mixed in vitro with the same decreasing concentrations of the distillate used to pretreat the cells, then the mixture was inoculated into replicate culture of HEL cells so that the final incolum consisted of 100 TCID50 doses of virus in tubes with 2,4-dimethylphenol at the same level used to prophylactically treat the cells.
(§3) The same number of infected control tubes were handled in the same way except that 2,4-dimethylphenol was omitted from all media. Culture tubes were rotated at 37° C. and examined daily for a period of 7 days for cytopathic activity (CPE). […] By the same token, the CPE of herpes virus was inhibited by both the 10^-12 and 10^-15 level, possibly indicating two active components. […]

[2] = system: Mycoplasma pulmonis (ATCC 19612); test: Serum antibodies for Mycoplasma in rats; assay type: in vivo, Mycoplasma pulmonis (host: rat); conditions: one part per million; two of 19 infected rats in all groups, the other a control
Source text: Attempts were made to test the effect of infecting rats with Mycoplasma pulmonis (ATCC 19612) so that they could transmit the disease to their cage mates and, also allowed them to breed. This was also done to test if the mothers would pass the infection on to their litters. These rats were purchased from a laboratory in Indianapolis, Indiana and they were divided into 6 groups with male animals in each group. In the 5 experimental groups, a total of 15 female rats out of 30, and in the control group 4 female rats out of 8 were infected intranasally with Mycoplasma pulmonis (ATCC 19612). There were two male rats per experimental group and 3 for the controls totaling 13 male rats, and none of these were infected with M. pulmonis.
The experimental groups (8 rats each) and control group were treated as follows:
All rats were fed ad libitum rat chow, and their cages were cleaned 5-6 times weekly. For the 5 experimental groups, the 2,4 DMP was dissolved in distilled water used for their drinking fluid while the control only received distilled water. There were times when the rats spilled excessive amounts of their drinking water and this caused a certain amount of the phenol to be evaporated from these cages, particularly those groups receiving the higher concentrations of the phenol. […]

[3] = system: chronic respiratory disease (CRD); test: Treatment of chronic respiratory disease in inbred GM rats; assay type: in vivo, rat (GM); for Dead animals: tested at 0.001 ppm; for Ill animals: tested at 0.001 ppm; for Well animals: tested at 0.001 ppm; for new born rats, all appeared healthy: tested at 0.001 ppm; for total number of rats in colony: tested at 0.001 ppm
Description: One-half of a colony of spontaneously hypertensive (SH) rats was treated with 2,4-dimethylphenol in their drinking water at a concentration of one part per billion. The other half of this colony was given only tap water, and both groups observed for 76 days. The second experiment was with a highly inbred strain (GM) of rats that were about to expire, because of chronic respiratory infection. […] Both groups, the SH rats and the GM rats, were not breeding because of their infections and were in seriously poor health.
The second experiment was run concurrently with Example 36, but this time the animals were the highly inbred GM strain. A number of these animals were ill with chronic respiratory disease and unable to breed. These rats were randomly divided into two groups of 26 each. The experimental group received 1 PPB of the 2,4-dimethylphenol in their drinking water and the control group received only tap water.

[4] = system: San Carlos virus; test: Inhibition of cytopathic activity (CPE) of San Carlos virus in HEL tissue culture; assay type: cell-based, San Carlos virus (adenovirus); conditions: for CPE with 100 TCID50 doses of San Carlos virus: HEL cells
Description: as §1, §2, §3

[5] = day 58, 1 PPB in drinking water, GM rats
[6] = day 66, 1 PPB in drinking water, GM rats
[7] = day 73, 1 PPB in drinking water, GM rats
[8] = day 80, 1 PPB in drinking water, GM rats
[9] = over 2.5 years, 1 PPB in drinking fluid, combined GM groups

Compound: Cc1ccc(O)c(C)c1 [2,4-dimethylphenol]
- CPE with 100 TCID50 doses of Measles virus ([1]; 10^-6 grams 2X): 3+ (75% of cells infected with selected virus)
- CPE with 100 TCID50 doses of Measles virus ([1]; 10^-7 grams 2X): 3+ (75% of cells infected with selected virus)
- CPE with 100 TCID50 doses of Measles virus ([1]; 10^-8 grams 2X): 3+ (75% of cells infected with selected virus)
- CPE with 100 TCID50 doses of Measles virus ([1]; 10^-9 grams 2X): 2+ (50% of cells infected with selected virus)
- CPE with 100 TCID50 doses of Measles virus ([1]; 10^-10 grams 2X): 2+ (50% of cells infected with selected virus)
- CPE with 100 TCID50 doses of Measles virus ([1]; 10^-11 grams 2X): 2+ (50% of cells infected with selected virus)
- CPE with 100 TCID50 doses of Measles virus ([1]; 10^-12 grams 2X): 2+ (50% of cells infected with selected virus)
- CPE with 100 TCID50 doses of Measles virus ([1]; 10^-13 grams 2X): 2+ (50% of cells infected with selected virus)
- CPE with 100 TCID50 doses of Measles virus ([1]; 10^-14 grams 2X): 1+ (25% of cells infected with selected virus)
- CPE with 100 TCID50 doses of Measles virus ([1]; 10^-15 grams 2X): 1+ (25% of cells infected with selected virus)
- CPE with 100 TCID50 doses of Measles virus ([1]; 10^-16 grams 2X): ± (less than 10% infected)
- CPE with 100 TCID50 doses of Measles virus ([1]; 10^-17 grams 2X): 1+ (25% of cells infected with selected virus)
- CPE with 100 TCID50 doses of Measles virus ([1]; 10^-18 grams 2X): 0 (no cells infected)
- Measles CPE ([1]; concentrations less than the 10^-14 level): appeared to be inhibited
- M. pulmonis infected rats with detectable Mycoplasma antibody titers [2]: One
- new born rats, all appeared healthy ([3]; by day 150, 1 PPB in drinking water, GM rats): 31
- breeding of experimental group ([3]; by day 150, 1 PPB, GM rats, control group did not start breeding): began to breed
- Ill animals [3, 5]: 3
- Well animals [3, 5]: 23
- Total number of rats ([3]; day 58, 1 PPB in drinking water, GM rats, 26 at start): 26
- Ill animals [3, 6]: 3
- Well animals [3, 6]: 23
- Total number of rats ([3]; day 66, 1 PPB in drinking water, GM rats, 26 at start): 26
- Ill animals [3, 7]: 2
- Well animals [3, 7]: 24
- Total number of rats ([3]; day 73, 1 PPB in drinking water, GM rats, 26 at start): 26
- Dead animals [3, 8]: 1
- Ill animals [3, 8]: 0
- Well animals [3, 8]: 25
- Total number of rats ([3]; day 80, 1 PPB in drinking water, GM rats, 26 at start): 25
- Well animals ([3]; day 150, 1 PPB in drinking water, GM rats): 53
- Total number of rats ([3]; day 150, 1 PPB in drinking water, GM rats, includes 31 new born): 56
- Ill animals ([3]; day 150, 1 PPB in drinking water, GM rats, only a trace of secretion): 3
- symptoms of the three rats listed as ill ([3]; day 150, 1 PPB, GM rats): only a trace of secretion
- state of colony [3, 9]: the colony has continued to thrive
- total number of rats in colony [3, 9]: about 400
- CPE with 100 TCID50 doses of San Carlos virus ([4]; 2,4-dimethylphenol 10^-4 grams 2X): 4+ (100% of cells infected with selected virus)
- CPE with 100 TCID50 doses of San Carlos virus ([4]; 10^-5 grams 2X): 2+ (50% of cells infected with selected virus)
- CPE with 100 TCID50 doses of San Carlos virus ([4]; 10^-6 grams 2X): 2+ (50% of cells infected with selected virus)
- CPE with 100 TCID50 doses of San Carlos virus ([4]; 10^-7 grams 2X): 1+ (25% of cells infected with selected virus)
- CPE with 100 TCID50 doses of San Carlos virus ([4]; 10^-8 grams 2X): 1+ (25% of cells infected with selected virus)
- CPE with 100 TCID50 doses of San Carlos virus ([4]; 10^-9 grams 2X): 1+ (25% of cells infected with selected virus)
- CPE with 100 TCID50 doses of San Carlos virus ([4]; 10^-10 grams 2X): 1+ (25% of cells infected with selected virus)
- CPE with 100 TCID50 doses of San Carlos virus ([4]; 10^-11 grams 2X): 1+ (25% of cells infected with selected virus)
- CPE with 100 TCID50 doses of San Carlos virus ([4]; 10^-12 grams 2X): 2+ (50% of cells infected with selected virus)
- CPE with 100 TCID50 doses of San Carlos virus ([4]; 10^-13 grams 2X): 2+ (50% of cells infected with selected virus)
- CPE with 100 TCID50 doses of San Carlos virus ([4]; 10^-14 grams 2X): 3+ (75% of cells infected with selected virus)
- inhibition of CPE produced by San Carlos virus ([4]; picograms, 10^-10 to 10^-12 per ml of medium): slight but consistent inhibition
